In patent US11655216B2 (priority 2016, dated 2023):
pEC50: −log10 of the molar value. Where two headings read alike, the source gives them in different places.

Legend:
[1] = biological target: T1, glutathione-S-transferase (GST) tagged LXRalpha LBD (ligand binding domain) (Homo sapiens, UniProt Q13133); test: biochemical
T1 construct: purchased Invitrogen pv4655
T1 sequence (Q13133 209-447 limits assumed): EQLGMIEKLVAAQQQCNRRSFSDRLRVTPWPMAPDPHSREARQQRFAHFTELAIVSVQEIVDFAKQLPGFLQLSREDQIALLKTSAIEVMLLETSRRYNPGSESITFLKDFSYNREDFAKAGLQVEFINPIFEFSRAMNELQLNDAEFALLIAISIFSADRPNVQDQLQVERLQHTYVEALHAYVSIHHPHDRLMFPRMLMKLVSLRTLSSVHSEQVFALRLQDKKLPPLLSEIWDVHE
Description: (§1) While running the LanthaScreen™ TR-FRET Liver X Receptor Coactivator Assay, LXR alpha-LBD or LXR beta-LBD was added to ligand test compounds followed by addition of a mixture of a fluorescein-labelled coactivator peptide and terbium-conjugated anti-GST antibody. After an incubation period at room temperature, TR-FRET (time-resolved fluorescence resonance energy transfer) was measured using a filter-based instrument capable of TR-FRET, e.g. PerkinElmer Envision.

[2] = biological target: T2, glutathione-S-transferase (GST) tagged LXRbeta LBD (ligand binding domain) (Homo sapiens, UniProt P55055); test: LanthaScreen TR-FRET Liver X Receptor Coactivator Assay, LXR beta; format: biochemical; conditions: for pEC50: LXR beta IP, potency (Inflection Point), compound-induced co-activator recruitment, TR-FRET; for Emax: read-out: LXR beta actiivty at max dose, efficacy (% Emax) in relation to reference dual agonist T0901317
T2 construct: purchased Invitrogen pv4658
T2 sequence (P55055 222-460 limits assumed): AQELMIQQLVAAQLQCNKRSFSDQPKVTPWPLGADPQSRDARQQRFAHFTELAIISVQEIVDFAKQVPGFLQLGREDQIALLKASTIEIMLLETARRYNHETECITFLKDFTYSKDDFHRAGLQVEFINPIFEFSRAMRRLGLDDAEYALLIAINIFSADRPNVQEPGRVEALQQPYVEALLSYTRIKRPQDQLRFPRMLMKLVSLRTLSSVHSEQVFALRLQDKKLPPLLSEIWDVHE
Description: as §1

[3] = potency (Inflection Point), compound-induced co-activator recruitment, TR-FRET
[4] = read-out: LXR alpha actiivty at max dose, efficacy (% Emax) in relation to reference dual agonist T0901317
[5] = LXR alpha IP, potency (Inflection Point), compound-induced co-activator recruitment, TR-FRET
[6] = efficacy (% Emax) in relation to reference dual agonist T0901317, read-out: LXR alpha actiivty at max dose

Compound	LXR alpha IP [1, 3]	Emax [1, 4]	pEC50 [2]	Emax [2]	pEC50 [1, 5]	pEC50 ([1]; LXR alpha IP)	Emax ([1]; read-out: LXR alpha actiivty at max dose)	Emax [1, 6]	pEC50 ([1]; potency (Inflection Point), compound-induced co-activator recruitment, TR-FRET, read-out: LXR alpha IP)
CC(C)N(C)C(=O)c1ccc(OCCCCC2CCN(C(=O)[C@](O)(c3ccccc3)C(F)(F)F)CC2)cc1Cl (single isomer, unassigned) [Example 8-17, (R or S)-2-chloro-N-isopropyl-N-methyl-4-(4-(1-(3,3,3-trifluoro-2-hydroxy-2-phenylpropanoyl)piperidin-4-yl)butoxy) benzamide]	No IP	10%	7.77	50%	–	–	–	–	–
CNC(=O)c1ccc(OCCCCC2CCN(C(=O)[C@](O)(c3cccc(OC)c3)C(F)(F)F)CC2)cc1Cl (single isomer, unassigned) [Example 8-18, (R or S)-2-chloro-N-methyl-4-(4-(1-(3,3,3-trifluoro-2-hydroxy-2-(3-methoxyphenyl)propanoyl)piperidin-4-yl)butoxy) benzamide]	–	31%	7.85	91%	6.13	–	–	–	–
CN(C)CCCNC(=O)c1ccc(OCCCCC2CCN(C(=O)[C@](O)(c3ccccc3)C(F)(F)F)CC2)cc1Cl (single isomer, unassigned) [Example 8-19, (R or S)-2-chloro-N-(3-(dimethylamino)propyl)-4-(4-(1-(3,3,3-trifluoro-2-hydroxy-2-phenylpropanoyl)piperidin-4-yl)butoxy) benzamide]	–	36%	7.48	53%	5.91	–	–	–	–
COc1cccc([C@@](O)(C(=O)N2CCC([C@H]3C[C@H]3CCOc3ccc(C(=O)N(C)C)c(Cl)c3)CC2)C(F)(F)F)c1 (single isomer, unassigned) [Example 10-1, 2-chloro-N,N-dimethyl-4-(2-((1S,2R or 1R, 2S)-2-(1-((R or S)-3,3,3-trifluoro-2-hydroxy-2-(3-methoxyphenyl)propanoyl)piperidin-4-yl)cyclopropyl)ethoxy)benzamide]	–	–	8.30	66%	–	6.93	14%	–	–
CN(C)C(=O)c1ccc(OCC[C@@H]2C[C@@H]2C2CCN(C(=O)c3c(F)cccc3F)CC2)cc1Cl (single isomer, unassigned) [Example 10-2, 2-chloro-4-(2-((1S,2R or 1R, 2S)-2-(1-(2,6-difluorobenzoyl)piperidin-4-yl)cyclopropyl)ethoxy)-N,N-dimethylbenzamide]	–	14%	6.97	69%	5.82	–	–	–	–
CNC(=O)c1ccc(OCC[C@@H]2C[C@@H]2C2CCN(C(=O)[C@](O)(c3cc(F)cc(F)c3)C(F)(F)F)CC2)cc1Cl (single isomer, unassigned) [Example 10-3, 2-chloro-4-(2-((1S,2R or 1R, 2S)-2-(1-((R or S)-2-(3,5-difluorophenyl)-3,3,3-trifluoro-2-hydroxypropanoyl)piperidin-4-yl)cyclopropyl)ethoxy)-N-methylbenzamide]	–	63%	8.70	116%	7.55	–	–	–	–
CNC(=O)c1ccc(OCC[C@@H]2C[C@@H]2C2CCN(C(=O)[C@](O)(c3cccc(OC)c3)C(F)(F)F)CC2)cc1Cl (single isomer, unassigned) [Example 10-5, 2-chloro-N-methyl-4-(2-((1S,2R or 1R, 2S)-2-(1-((R or S)-3,3,3-trifluoro-2-hydroxy-2-(3-methoxyphenyl)propanoyl)piperidin-4-yl)cyclopropyl)ethoxy) benzamide]	–	13%	8.15	75%	6.68	–	–	–	–
CN(C)C(=O)c1ccc(OCC[C@@H]2C[C@@H]2C2CCN(C(=O)[C@@](O)(c3ccccc3)C(F)(F)F)CC2)nc1Cl (single isomer, unassigned) [Example 10-6, 2-chloro-N,N-dimethyl-6-(2-((1S,2R or 1R,2S)-2-(1-((S or R)-3,3,3-trifluoro-2-hydroxy-2-phenylpropanoyl)piperidin-4-yl)cyclopropyl)ethoxy) nicotinamide]	–	36%	7.92	71%	6.69	–	–	–	–
CN(C)C(=O)c1ccc(OCC[C@@H]2C[C@@H]2C2CCN(C(=O)OCc3ccccc3)CC2)nc1Cl (single isomer, unassigned) [Example 10-7, benzyl 4-((1R,2S or 1S,2R)-2-(2-(6-chloro-5-(dimethylcarbamoyl)pyridin-2-yloxy)ethyl)cyclopropyl) piperidine-1-carboxylate]	–	41%	7.31	104%	6.06	–	–	–	–
CN(C)C(=O)c1ccc(OCC[C@H]2C[C@H]2C2CCN(C(=O)[C@](O)(c3ccccc3)C(F)(F)F)CC2)cc1C#N (single isomer, unassigned) [Example 11-1, 2-cyano-N,N-dimethyl-4-(2-((1R,2S or 1S,2R)-2-(1-((R or S)-3,3,3-trifluoro-2-hydroxy-2-phenylpropanoyl)piperidin-4-yl)cyclopropyl)ethoxy)benzamide]	–	–	6.97	78%	–	–	–	23%	5.85
CN(C)C(=O)c1ccc(OCCC2CC23CCN(C(=O)C2(c4ccccc4)CCCC2)CC3)cc1Cl (single isomer, unassigned) [Example 12-1, (R or S)-2-chloro-N,N-dimethyl-4-(2-(6-(1-phenylcyclopentanecarbonyl)-6-azaspiro[2.5]octan-1-yl)ethoxy)benzamide]	No IP	–	7.62	58%	–	–	–	1%	–
Cc1nnc(C(C)(C)C(=O)N2CCC3(CC2)CC3CCOc2ccc(C(=O)N(C)C)c(Cl)c2)s1 (single isomer, unassigned) [Example 12-2, (R or S)-2-chloro-N,N-dimethyl-4-(2-(6-(2-methyl-2-(5-methyl-1,3,4-thiadiazol-2-yl)propanoyl)-6-azaspiro[2.5]octan-1-yl)ethoxy)benzamide]	–	52%	6.18	57%	4.98	–	–	–	–
CN(C)C(=O)c1ccc(OCCC2CC23CCN(C(=O)Cc2cccc(Br)c2)CC3)cc1Cl (single isomer, unassigned) [Example 12-3, (R or S)-4-(2-(6-(2-(3-bromophenyl)acetyl)-6-azaspiro[2.5]octan-1-yl)ethoxy)-2-chloro-N,N-dimethylbenzamide]	No IP	1%	6.82	28%	–	–	–	–	–
CN(C)C(=O)c1ccc(OCCC2CC23CCN(C(=O)C2(c4ccccc4)CCCN(C(=O)OC(C)(C)C)C2)CC3)cc1Cl (single isomer, unassigned) [Example 12-4, tert-butyl 3-((R or S)-1-(2-(3-chloro-4-(dimethylcarbamoyl)phenoxy)ethyl)-6-azaspiro[2.5]octane-6-carbonyl)-3-phenylpiperidine-1-carboxylate]	No IP	0%	6.74	22%	–	–	–	–	–
CN(C)C(=O)c1ccc(OCCC2CC23CCN(C(=O)C2(c4ccccc4Cl)CCC2)CC3)cc1Cl (single isomer, unassigned) [Example 12-5, (R or S)-2-chloro-4-(2-(6-(1-(2-chlorophenyl)cyclobutanecarbonyl)-6-azaspiro[2.5]octan-1-yl)ethoxy)-N,N-dimethylbenzamide]	–	49%	8.52	54%	7.04	–	–	–	–
CN(C)C(=O)c1ccc(OCCC2CC23CCN(C(=O)C2(c4ccccc4C(F)(F)F)CCC2)CC3)cc1Cl (single isomer, unassigned) [Example 12-6, (R or S)-2-chloro-N,N-dimethyl-4-(2-(6-(1-(2-(trifluoromethyl)phenyl)cyclobutanecarbonyl)-6-azaspiro[2.5]octan-1-yl)ethoxy)benzamide]	–	48%	8.40	68%	7.10	–	–	–	–
CN(C)C(=O)c1ccc(OCCC2CC23CCN(C(=O)C(C)(C)c2ccsc2)CC3)cc1Cl (single isomer, unassigned) [Example 12-7, (R or S)-2-chloro-N,N-dimethyl-4-(2-(6-(2-methyl-2-(thiophen-3-yl)propanoyl)-6-azaspiro[2.5]octan-1-yl)ethoxy)benzamide]	–	39%	7.54	64%	6.23	–	–	–	–
CN(C)C(=O)c1ccc(OCC[C@H]2CC23CCN(C(=O)[C@@](N)(c2ccccc2)C(F)(F)F)CC3)cc1Cl (single isomer, unassigned) [Example 12-8, 4-(2-((R or S)-6-((S or R)-2-amino-3,3,3-trifluoro-2-phenylpropanoyl)-6-azaspiro[2.5]octan-1-yl)ethoxy)-2-chloro-N,N-dimethylbenzamide]	–	23%	6.87	67%	5.65	–	–	–	–
